From patent US6682914B2, “Bioactive tetracyclic diterpene compounds and methods of preparation and use thereof” (Universidad del Pais Vasco/Euskal Herriko Unibersitatea, priority 2001, dated 2004)

Tested on: Aspergillus nidulans
Experiment: Conidiation-inducing bioassay modified for Aspergillus (conidiophores per mycelial pellet)
Type: cell-based
Conditions: control at least 28 hours
Procedure: Assays were carried out in shaken flask cultures using 25 mL. […] Determination of conidiation inducing activity was followed by microscopic observation of mycelium samples taken at different times. For these purposes, conidiation time was defined as the time at which 50% of the hyphal tips attained the final stage of conidiation (conidia-bearing tips), according to previously established criteria (Ugalde and Pitt, 1983), namely, the direct microscopic observation of three separate groups of 500 hyphal tips, and the determination of the proportion of hyphal tips in each group which bear conidia.
The bioassay procedure described above was used to assess qualitatively in other filamentous fungi, in particular, those of the genus Aspergillus, the conidiation-inducing activity of the compounds that were extracted, isolated and purified from Penicillium cyclopium in accordance with Example 1. […] Thus, the criteria employed to determine the time of conidiation in these cases was the appearance of at least two conidiophores (the specific phialide bearing structure for this genus) on average per mycellial pellet, measured from a minimum of 10 pellets.

| Structure (SMILES) | time of incubation to positive conidiogenic activity (at least two conidiophores per mycelial pellet) (100 ng/mL in culture medium) | time of incubation to positive conidiogenic activity (at least two conidiophores per mycelial pellet) (25-50 ng/mL in culture medium) |
| --- | --- | --- |
| CC1C(O)CC(O)C2(C)CCC3C4C(C)(C)CCC4(C)CC132 (stereo not drawn) [conidiogenol, (1R*, 3R*, 7R*, 8S*, 11R*, 12R*, 14S*, 15R*)-3,6,6,11,15-pentamethyl-tetracyclo[9.4.0.0^1,8.0^3,7]-pentadecan-12,14-diol] | 22 h | – |
| CC1C(O)CC(=O)C2(C)CCC3C4C(C)(C)CCC4(C)CC132 (stereo not drawn) [conidiogenone, (1R*, 3R*, 7R*, 8S*, 11R*, 14S*, 15R*)-14-Hydroxy-3,6,6,11,15pentamethyl-tetracyclo[9.4.0.0^1,8.0^3,7]-pentadecan-12-one] | – | 22 h |
